{"source": "paper PMC8617031", "about": "“Development of a BCL-xL and BCL-2 dual degrader with improved anti-leukemic activity,” (Nature Communications, 2021)", "key": {"[1]": {"biological_target": "T1, His-tagged BCL-xL (Homo sapiens, UniProt Q07817)", "T1 construct": "purchased Sigma-Aldrich SRP0187", "T1 sequence (Q07817 whole entry)": "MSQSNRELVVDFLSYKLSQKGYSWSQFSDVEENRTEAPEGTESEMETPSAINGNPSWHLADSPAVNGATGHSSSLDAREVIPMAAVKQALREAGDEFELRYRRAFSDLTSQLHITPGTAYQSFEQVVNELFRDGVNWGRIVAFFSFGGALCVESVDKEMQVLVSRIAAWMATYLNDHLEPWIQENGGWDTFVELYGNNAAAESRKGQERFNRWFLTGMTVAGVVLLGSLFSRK", "assay": "AlphaScreen competitive binary binding, BCL-xL (biotin-BAD peptide)", "experimental": "(§1) The reagents were diluted in a buffer containing 250 mM HEPES pH 7.5, 1 M NaCl, 1% BSA, and 0.05% Tween-80. His-tagged BCL-xL (0.5 nM, Cat. No. SRP0187, Sigma-Aldrich) or BCL-2 (1 nM, Cat. No. SRP0186, Sigma-Aldrich) were incubated with serial diluted 753a or 753b and 2 nM biotin-tagged BAD (biotin-[…] amino-terminal, AnaSpec, for BCL-xL) or 10 nM BIM peptides (biotin-[…] N-terminal, AnaSpec, for BCL-2) to a final volume of 40 µl in a 96-well PCR plate. […] After incubation for 2 h, 5 µl 6× His-acceptor beads (Cat. No. AL128M, PerkinElmer) were added to each well at 20 µg/ml final concentration and incubated for 1 h. Then 5 µl streptavidin-donor beads were added (Cat. No. 6760002, PerkinElmer) to each well at 20 µg/ml final concentration and incubated for 45 min. At the end of the incubation period, 17 µl of each sample was transferred in adjacent wells of 384-well proxy plate (Cat. No. 6008280, PerkinElmer). The plate was scanned using the Alpha program on Biotek’s Synergy Neo2 multimode plate reader. The inhibition constant (Ki) was calculated using the non-linear regression, one site, competitive binding, Fit Ki function on GraphPad Prism 9 software, based on experimentally determined dissociation constant (Kd) for each protein–peptide pair."}, "[2]": {"biological_target": "T2, His-tagged BCL-2 (Homo sapiens, UniProt P10415)", "T2 construct": "purchased Sigma-Aldrich SRP0186", "T2 sequence (P10415 whole entry)": "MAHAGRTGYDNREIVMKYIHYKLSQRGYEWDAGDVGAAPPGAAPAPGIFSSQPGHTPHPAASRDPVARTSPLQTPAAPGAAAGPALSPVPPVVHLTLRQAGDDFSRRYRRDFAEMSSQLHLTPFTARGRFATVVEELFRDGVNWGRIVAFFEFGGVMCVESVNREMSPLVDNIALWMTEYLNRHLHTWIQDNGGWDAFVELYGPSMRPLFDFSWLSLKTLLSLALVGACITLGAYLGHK", "assay": "AlphaScreen competitive binary binding, BCL-2 (biotin-BIM peptide)", "experimental": "as §1"}, "[3]": {"conditions": "AlphaScreen, Supplementary Fig. 6"}}, "note": "Where “and” joins values, the source holds several entries; their conditions need not be identical. Equal values may be shown once.", "data": [{"compound": "Cc1ncsc1-c1ccc([C@H](C)NC(=O)[C@@H]2C[C@@H](O)CN2C(=O)[C@@H](NC(=O)CCCCCCC(=O)N2CCN(C[C@@]3(C)CCC(c4ccc(Cl)cc4)=C(CN4CCN(c5ccc(C(=O)NS(=O)(=O)c6ccc(N[C@H](CCN7CCOCC7)CSc7ccccc7)c(S(=O)(=O)C(F)(F)F)c6)cc5)CC4)C3)CC2)C(C)(C)C)cc1", "note": "[753a]", "values": [{"measurement": "binary binding affinity to BCL-xL (in words)", "setting": "[1]; [3]", "result": "much weaker than that of the warhead ABT263"}, {"measurement": "IC50", "setting": "[1]; BCL-xL Rep-1", "result": 39, "unit": "nM"}, {"measurement": "Ki", "setting": "[1]; BCL-xL Rep-1", "result": 1.75, "unit": "nM"}, {"measurement": "Alpha signal (raw counts)", "setting": "[1]; BCL-xL Rep-1, plate row B, 5 uM", "result": "27085 and 24738"}, {"measurement": "Alpha signal (raw counts)", "setting": "[1]; BCL-xL Rep-1, plate row C, 1.25 uM", "result": "28062 and 40230"}, {"measurement": "Alpha signal (raw counts)", "setting": "[1]; BCL-xL Rep-1, plate row D, 0.3125 uM", "result": "145116 and 115021"}, {"measurement": "Alpha signal (raw counts)", "setting": "[1]; BCL-xL Rep-1, plate row E, 0.078125 uM", "result": "433630 and 441172"}, {"measurement": "Alpha signal (raw counts)", "setting": "[1]; BCL-xL Rep-1, plate row F, 0.0195312 uM", "result": "726417 and 752069"}, {"measurement": "Alpha signal (raw counts)", "setting": "[1]; BCL-xL Rep-1, plate row G, 0.00488281 uM", "result": "950071 and 945138"}, {"measurement": "Alpha signal (raw counts)", "setting": "[1]; BCL-xL Rep-1, plate row H, 0.0012207 uM", "result": "1050463 and 1074380"}, {"measurement": "Alpha signal (raw counts)", "setting": "[1]; BCL-xL Rep-1, plate row I, 0.000305176 uM", "result": "1307721 and 1309993"}, {"measurement": "Alpha signal (raw counts)", "setting": "[1]; BCL-xL Rep-1, plate row J, 7.62939e-5 uM", "result": "1113170 and 1173569"}, {"measurement": "Alpha signal (raw counts)", "setting": "[1]; BCL-xL Rep-1, plate row K, 1.90735e-5 uM", "result": "1107772 and 1259986"}, {"measurement": "Alpha signal (raw counts)", "setting": "[1]; BCL-xL Rep-2, 7.62939e-5 uM", "result": "1188088 and 1161046"}, {"measurement": "Alpha signal (raw counts)", "setting": "[1]; BCL-xL Rep-2, plate row B, 5 uM", "result": "24343 and 23695"}, {"measurement": "Alpha signal (raw counts)", "setting": "[1]; BCL-xL Rep-2, plate row C, 1.25 uM", "result": "25479 and 38889"}, {"measurement": "Alpha signal (raw counts)", "setting": "[1]; BCL-xL Rep-2, plate row D, 0.3125 uM", "result": "95317 and 147841"}, {"measurement": "Alpha signal (raw counts)", "setting": "[1]; BCL-xL Rep-2, plate row E, 0.078125 uM", "result": "336804 and 343845"}, {"measurement": "Alpha signal (raw counts)", "setting": "[1]; BCL-xL Rep-2, plate row F, 0.0195312 uM", "result": "767361 and 853215"}, {"measurement": "Alpha signal (raw counts)", "setting": "[1]; BCL-xL Rep-2, plate row G, 0.00488281 uM", "result": "937707 and 1041403"}, {"measurement": "Alpha signal (raw counts)", "setting": "[1]; BCL-xL Rep-2, plate row H, 0.0012207 uM", "result": "1127054 and 1147040"}, {"measurement": "Alpha signal (raw counts)", "setting": "[1]; BCL-xL Rep-2, plate row I, 0.000305176 uM", "result": "1272095 and 1259132"}, {"measurement": "Alpha signal (raw counts)", "setting": "[1]; BCL-xL Rep-2, plate row K, 1.90735e-5 uM", "result": "1255062 and 1549086"}, {"measurement": "Ki", "setting": "[1]; BCL-xL, mean of the two replicate values (line without label)", "result": 1.52, "unit": "nM"}, {"measurement": "Ki", "setting": "[1]; BCL-xL, second value (line without label below Rep-1, apparently Rep-2)", "result": 1.29, "unit": "nM"}, {"measurement": "binary binding affinity to BCL-2 (in words)", "setting": "[2]; [3]", "result": "much weaker than that of the warhead ABT263"}, {"measurement": "Alpha signal (raw counts)", "setting": "[2]; BCL-2 Rep-2, 0.00488281 uM", "result": "457099 and 452255"}, {"measurement": "Alpha signal (raw counts)", "setting": "[2]; BCL-2 Rep-2, plate row C, 1.25 uM", "result": "11131 and 19293"}, {"measurement": "Alpha signal (raw counts)", "setting": "[2]; BCL-2 Rep-2, plate row D, 0.3125 uM", "result": "23398 and 21436"}, {"measurement": "Alpha signal (raw counts)", "setting": "[2]; BCL-2 Rep-2, plate row E, 0.078125 uM", "result": "28167 and 26661"}, {"measurement": "Alpha signal (raw counts)", "setting": "[2]; BCL-2 Rep-2, plate row F, 0.0195312 uM", "result": "165828 and 146355"}, {"measurement": "Alpha signal (raw counts)", "setting": "[2]; BCL-2 Rep-2, plate row H, 0.0012207 uM", "result": "607122 and 550701"}, {"measurement": "Alpha signal (raw counts)", "setting": "[2]; BCL-2 Rep-2, plate row I, 0.000305176 uM", "result": "723572 and 761986"}, {"measurement": "Alpha signal (raw counts)", "setting": "[2]; BCL-2 Rep-2, plate row J, 7.62939e-5 uM", "result": "723255 and 767572"}, {"measurement": "Alpha signal (raw counts)", "setting": "[2]; BCL-2 Rep-2, plate row K, 1.90735e-5 uM", "result": "723831 and 708342"}]}]}
